One substance from US20260055381A1, “PROTEIN, POLYNUCLEOTIDE, EXPRESSION VECTOR, TRANSFORMANT, PLASMALOGEN-CONTAINING COMPOSITION, AND METHOD FOR PRODUCING PLASMALOGEN” (INSTITUTE OF RHEOLOGICAL FUNCTION OF FOOD CO., LTD., priority 2022, published 2026) can be followed below.

A short description of this experiment: Production of plasmalogen in suis plsA-transformed E. coli (phospholipid by HPLC-ELSD, aldehyde after acid hydrolysis). The settings on record: in aerobically grown E. coli. Here is the method: After thawing the bacterial cells, the total weight of the cells was measured. After 1 mL of water was added to and mixed with the bacterial cells, 3.75 mL of chloroform/methanol (1:2, v/v) was added thereto, and the resulting mixture was mixed. The mixture was subjected to sonication for 10 minutes, and then left to stand at room temperature for 30 minutes. After adding 1.25 mL chloroform to the mixture, 1.25 mL water was added thereto. After performing centrifugation, the chloroform layer was transferred to a glass tube, and the remaining aqueous layer was subjected to re-extraction with 2 mL of chloroform. The resulting combined chloroform layer was dried under nitrogen gas, and resuspended in hexane/isopropanol (3:2, v/v) to a bacterial cell concentration of 120 mg/mL, followed by filtration through a 0.45-μm filter. After injecting 10 μL of the bacterial cell suspension into high-performance liquid chromatography (HPLC), detection was performed by an evaporative light-scattering detector (ELSD).
Lipid standard solutions with different concentrations were also detected by HPLC-ELSD. A calibration curve was prepared based on the peak area at each concentration, and the amount of phospholipids was calculated from the area ratio of the peak corresponding to phospholipids obtained from the E. coli with a retention time of 10 to 20 minutes. […]

Take “suis PlsA protein: PlsA protein of 1639 amino acids of SEQ ID NO:2, from B. longum suis subspecies”: the plasmalogen synthesis activity result is recorded as “shown to have a plasmalogen synthesis activity”.
